Test results as given in US20180078615A1, “USE OF CCL2 TO INHIBIT ABNORMAL UTERINE BLEEDING” (UNIVERSITY OF SOUTH FLORIDA, priority 2015, published 2018).

Experiments:
Format in all cases: cell-based, human
VSMCs [1] = experiment: VSMC proliferation assay by BrdU incorporation; details: 10^−7 M, 48-h treatment, mean±SEM; control 0.81±0.03
Procedure: VSMCs were grown in 96-well plates or 8-well chamber slides and incubated with 10^−7 M of MPA (Sigma-Aldrich) or ETO (Organon) or P4 (Sigma-Aldrich) or vehicle±rCCL2 (R&D Systems)±STAT1 inhibitor, 5′-methyl-thioadenosine (MTA; EMD Millipore) (19) for 48 or 72 h. VSMCs were then analyzed for apoptosis by an ELISA based apoptosis kit (Roche) or cleaved-caspase 3 immunostaining. VSMC proliferation was measured by BrdU incorporation Kit (Cell Signaling). (See further details in SI Materials and Methods).
VSMCs were thawed and cultured in T-75 cell culture flasks in medium 231 (M231; Life Technologies) with smooth muscle growth supplement (5% FBS; 2 ng/mL human basic fibroblast growth factor, 0.5 ng/mL human epidermal growth factor, 5 ng/mL heparin, 0.2 μg/mL insulin and 5 μg/mL BSA; Life Technologies) with 100 U/mL penicillin, 100 μg/mL streptomycin, and 0.25 μg/mL fungizone. Confluent VSMCs were washed twice with 1×PBS to remove residual serum, and then passaged (5,000 cells per well) in 96-well plates and incubated in parallel in M231 with 1% charcoal striped FBS with 0.1% ethanol (vehicle, control), 10^−7 M MPA (Sigma-Aldrich), 10^−7 M ETO (Organon), or 10^−7 M P4 (Sigma-Aldrich)±rCCL2 (monocyte chemotactic protein-1; R&D Systems)±STAT1 inhibitor, 5′-methyl-thioadenosine (MTA; EMD Millipore) for 48 or 72 h.
BrdU (Cell Signaling) 1× in 100-μL M231 was added to each well during the final 24 h of incubation. At the end of 48- or 72-h incubation period, medium was removed and the wells washed twice with ice-cold PBS. VSMC proliferation was measured using BrdU cell proliferation Kit (Cell Signaling) at room temperature. Cells was incubated in 100 μL per well of the fixing/denaturing solution for 30 min, and then replaced by 100 μL per well BrdU detection antibody solution for 1 h. Following three rinses with wash buffer, plates were incubated in HRP-conjugated secondary antibody (100 μL per well) for 30 min. After three additional rinses with wash buffer, tetramethylbenzidine substrate solution (100 μL per well) was added for 20 min and the reaction stopped by adding 100 μL per well STOP solution. Absorbance was measured at 450 nm using Spectra Max190 microplate reader (Molecular Devices) to detect BrdU incorporation in each well.

STAT1 = experiment: Western blot of total and phosphorylated STAT1 in VSMCs; details: VSMCs treated for 15 min, vs control
Procedure: (§1) VSMCs were thawed and cultured in medium 231 (M231; Life Technologies) with smooth muscle growth supplement (5% FBS; 2 ng/mL human basic fibroblast growth factor, 0.5 ng/mL human epidermal growth factor, 5 ng/mL heparin, 0.2 μg/mL insulin and 5 μg/mL BSA; Life Technologies) with 100 U/mL penicillin, 100 μg/mL streptomycin, 0.25 μg/mL fungizone. Confluent VSMCs were washed twice with 1×PBS to remove residual serum, passaged in 96-well or 6-well plates and incubated in parallel in M231 with 1% charcoal striped FBS with 0.1% ethanol (vehicle, control) or 10^−7 M MPA (Sigma-Aldrich) or 10^−7 M ETO (Organon) or 10^−7 M P4 (Sigma-Aldrich) for 15 min, 6, 48, and 72 h. VSMCs were then washed with ice-cold PBS and stored at −80° C. for further RNA and protein analyses.
To confirm inhibition of STAT1 signaling in LAPC-treated VSMCs, detected by IPA, cell lysates from VSMCs were run in 10% Tris-HCl gel (Bio-Rad). Transfer onto membrane, blocking, washing, chemiluminescence development, and stripping/reprobing were performed as described previously (35). The membrane was incubated with antitotal STAT1 or antiphospho-STAT1 rabbit monoclonal antibodies (Cell Signaling) and then with peroxidase-conjugated goat anti-rabbit IgG (Vector Labs). Signals were developed by a chemiluminescence kit (GE Healthcare).

VSMCs [2] = experiment: Whole genome microarray analysis (Illumina HumanHT-12 v4) of cultured VSMCs treated with progestins; details: VSMCs treated by ETO
From the text: Cultured VSMCs (n=3) treated with control medium or medium containing medroxyprogesterone acetate (MPA, 10^−7 M), or etonogestrel (ETO, 10^−7 M) were processed for whole genome analyses using Illumina Human microarray kit. After qRT-PCR confirmation of several up and down regulated genes from microarray data, Ingenuity Pathway Analysis (IPA) determined relevant upstream signaling of LAPC altered gene expression. To investigate the role of genes and relevant signaling molecules identified by IPA, VSMCs (n=3) treated with MPA or ETO±1 or 10 ng/ml recombinant CCL2 (rCCL2)±STAT1 inhibitor, 5′-methyl-thioadenosine (MTA, 100 μM) were analyzed by BrdU incorporation proliferation, TUNEL based ELISA apoptosis and Transwell insert migration assays.
as §1
Total RNA was isolated using Qiagen miRNeasy Mini Kit (Qiagen) and RNeasy MinElute Cleanup Kit (Qiagen). The quality of isolated RNAs was confirmed using an Agilent 2100 Bioanalyzer. Microarray analysis was limited to those specimens in which RNA Integrity Number exceeded 8. Microarray processes were performed in the Keck Biotechnology Resource Laboratory at Yale University (New Haven, Conn.) using Illumina Human HT-12 v4 BeadChip (Illumina). Raw data without normalization were analyzed by GeneSpring GX12.5 software (Agilent Technologies-Silicon Genetics). Normalization was performed as described (35). Genes with a fold-change >1.25 and a P value<0.05 were considered differentially expressed. Ingenuity Pathway Analysis (IPA) software (Qiagen) explored molecular and biological networks related to differentially expressed genes.

C#C[C@]1(O)CC[C@H]2[C@@H]3CCC4=CC(=O)CC[C@@H]4[C@H]3C(=C)C[C@@]21CC [ETO, etonogestrel]
BrdU incorporation (VSMCs [1]): 0.40±0.03 | phosphorylated levels of STAT1 (STAT1): partially reduced | total STAT1 levels (STAT1): not | Fold-change, ABI gene family, member 3 (NESH) binding protein (ABI3BP) (VSMCs [2]): −1.636 | Fold-change, Actin, γ 2, smooth muscle, enteric (ACTG2) (VSMCs [2]): 1.514 | Fold-change, Alcohol dehydrogenase 1A (class I), alpha polypeptide (ADH1A) (VSMCs [2]): 1.54 | Fold-change, Bone morphogenetic protein 6 (BMP6) (VSMCs [2]): 1.467 | Fold-change, Chemokine (C-C motif) ligand 2 (CCL2) (VSMCs [2]): −2.211 | Fold-change, Claudin 11 (oligodendrocyte transmembrane protein) (CLDN11) (VSMCs [2]): −1.544 | Fold-change, Collagen, type VIII, α 1, transcript variant 2 (COL8A1) (VSMCs [2]): 1.44 | Fold-change, Complement factor B (CFB) (VSMCs [2]): −1.835 | Fold-change, Cysteine-rich secretory protein LCCL domain containing 2, (CRISPLD2) (VSMCs [2]): 1.661 | Fold-change, DNA-damage regulated autophagy modulator 1 (DRAM1) (VSMCs [2]): −1.535 | Fold-change, Decorin, transcript variant A2, (DCN) (VSMCs [2]): 1.762 | Fold-change, EF-hand domain family, member D1 (EFHD1) (VSMCs [2]): 1.471 | Fold-change, Endoglin (Osler-Rendu-Weber syndrome 1) (ENG) (VSMCs [2]): −1.428 | Fold-change, Filaggrin (FLG) (VSMCs [2]): −1.59 | Fold-change, Growth arrest-specific 6 (GAS6) (VSMCs [2]): 1.4661 | Fold-change, H19, imprinted maternally expressed transcript noncoding RNA (H19) (VSMCs [2]): 2.497 | Fold-change, Hypothetical protein FLJ40504 (FLJ40504) (VSMCs [2]): −1.625 | Fold-change, Indolethylamine N-methyltransferase (INMT) (VSMCs [2]): 1.443 | Fold-change, Intelectin 2 (ITLN2) (VSMCs [2]): 1.655 | Fold-change, LY6/PLAUR domain containing 1, transcript variant 1 (LYPD1) (VSMCs [2]): −1.447 | Fold-change, Latexin (LXN) (VSMCs [2]): −1.779 | Fold-change, Leptin (obesity homolog, mouse) (LEP) (VSMCs [2]): 1.602 | Fold-change, Mitogen-activated protein kinase kinase 2 (MAP2K2) (VSMCs [2]): −1.437 | Fold-change, PREDICTED: miscRNA (LOC399965) (VSMCs [2]): −1.534 | Fold-change, PREDICTED: similar to LYPDC1 protein (LOC100134073) (VSMCs [2]): −1.536 | Fold-change, PREDICTED: similar to filaggrin (LOC730833) (VSMCs [2]): −1.474 | Fold-change, Pleckstrin homology-like domain, family A, member 1 (PHLDA1) (VSMCs [2]): −1.487 | Fold-change, Potassium voltage-gated channel, shaker-related subfamily, 0 member 1, transcript variant2 (KCNAB1) (VSMCs [2]): −1.492 | Fold-change, Prostaglandin-endoperoxide synthase 1, transcript variant 2 (PTGS1) (VSMCs [2]): 1.555 | Fold-change, RAB11 family interacting protein 1 (class I), transcript variant 3, (RAB11FIP1) (VSMCs [2]): 1.55 | Fold-change, Retinoic acid receptor responder (tazarotene induced) 1, transcript variant 1, (RARRES1) (VSMCs [2]): −2.146 | Fold-change, Retinoic acid receptor responder (tazarotene induced) 1, transcript variant 2, (RARRES1) (VSMCs [2]): −1.809 | Fold-change, Superoxide dismutase 2, mitochondrial, transcript variant 2, (SOD2) (VSMCs [2]): −1.778 | Fold-change, Thioredoxin domain containing 5, transcript variant 2 (TXNDC5) (VSMCs [2]): 1.429 | Fold-change, Transmembrane 4 L six family member 1 (TM4SF1) (VSMCs [2]): −1.467 | Fold-change, Transmembrane protein 119 (TMEM119) (VSMCs [2]): 1.448 | Fold-change, Wingless-type MMTV integration site family, member 5A (WNT5A) (VSMCs [2]): 1.504 | Fold-change, cDNA FLJ20769 fis, clone COL06674 (PREDICTED: Receptor tyrosine kinase-like orphan receptor 1) (VSMCs [2]): 1.528 | Fold-change, Matrix Gla protein (MGP) (VSMCs [2]; table entry 6): 1.581 | Fold-change, Matrix Gla protein (MGP) (VSMCs [2]; table entry 8): 1.554
